Assay results taken from patent US10420758B2, “Indolinyl-sulfonamide inhibitors of tankyrase and methods of use thereof” (The Board of Regents of the University of Texas System, priority 2015, dated 2019).

Assays:
PARP6 = PARP6 (Homo sapiens, UniProt Q2NL67); test: PARP profiling, parsylation of immobilized histone; format: biochemical; settings: IWR compounds 10 μM
Procedure: (§1) Performed by BPS Bioscience Inc., San Diego by following the BPS PARP or TNKS assay kit protocols. The enzymatic reactions were conducted in duplicate at room temperature for 1 hr in a 96 well plate coated with histone substrate. […] of reaction buffer (Tris.HCl, pH 8.0) contains NAD^+, biotinylated NAD^+, activated DNA, recombinant PARP enzyme and 10 μM of the test compound. […] After enzymatic reactions, 50 μL of Streptavidin-horseradish peroxidase was added to each well and the plate was incubated at room temperature for an additional 30 min. 100 μL of developer reagents were added to wells and luminescence was measured using a BioTek Synergy™ 2 microplate reader.

PARP11 = PARP11 (Homo sapiens, UniProt Q9NR21); test: PARP profiling, parsylation of immobilized histone; format: biochemical; settings: IWR compounds 10 μM
Procedure: as §1

PARP1 = PARP1 (Homo sapiens, UniProt P09874); test: PARP profiling, parsylation of immobilized histone; format: biochemical; settings: IWR compounds 10 μM
Procedure: as §1

PARP7 = PARP7 (Homo sapiens, UniProt Q7Z3E1); test: PARP profiling, parsylation of immobilized histone; format: biochemical; settings: IWR compounds 10 μM
Procedure: as §1

telomerase = molecular target: T1, telomerase (Homo sapiens, UniProt O14746); test: Digital droplet telomerase extension (ddTRAP) assay; format: cell-based; settings: HeLa cells treated for 24 hrs, FIG. 4F
T1 construct: endogenous in cells; host or cells: HeLa
Source text: FIGS. 4A-4F show Tnks inhibitors induce telomeric stress in human cells independently of Wnt/β-catenin pathway inhibition. (FIG. 4A) Porcn inhibitors afford a Tnks-independent approach to disrupting Wnt/β-catenin signaling. Chemicals targeting the Wnt acyltransferase Porcn abrogate Wnt palmitoylation which in turn results in loss of activity of the Frizzled (Fzd) family of Wnt receptors. Fzd receptors directly induce activation of the cytoplasmic signaling molecule Dishevelled (Dvl) in a ligand-dependent manner, which in turn results in activation of β-catenin and transcription mediated by the TCF family of DNA binding proteins. […] The appearance of co-localized Terf2 and pH2A.X (an indicator of DNA damage at the telomere ends; Telomere Induced Foci or TIFs) was scored using indirect immunofluorescence in Hela cells (expressing wild-type Apc protein). (FIG. 4C) Quantification of results represented in “B”. Cells with >5 TIFs were scored as positive for telomeric damage (left bars). […]
The ddTRAP assay was performed as previously described (Ludlow, et al., 2014). […] Fluorescence was quantitated using a QX200 droplet reader (Bio-Rad) in the 6-Fam channel. Thresholds for quantitation were determined by comparison to a telomerase negative fibroblast cell line and no cell input negative control samples and untreated Hela cell positive control samples.

Tnks enzymes = settings: cited from earlier work
HeLa cells = test: Terminal restriction fragment (TRF) telomere length assay; format: cell-based, human; settings: up to 40 population doublings, FIGS. 6A-B
Procedure: FIGS. 6A-6C show Tnks inhibitors but not a Porcn inhibitor induce telomeric shortening. […] HeLa cells were incubated with IWR-1, IWR-8, or IWP-6 at various concentrations for the indicated number of population doublings (PD) and telomere length measured by terminal restriction fragment (TRF) analysis. Density of radioprobe hybridization relative to the vertical distance from the largest molecular weight marker was quantified using ImageJ and the point of highest density in each lane marked by a dark line. Position of control telomere restricted fragment signal is indicated with dotted line. Lanes with insufficient strength in labeling or that were disrupted with blemishes during experimental processing were not quantified. […] The same assay described in “A” was used to test the Porcn inhibitor IWP-2. (FIG. 6C) Model of Tnks-dependent regulation of Wnt/β-catenin transcriptional and telomere length maintenance in human cells. Excessive Terf1 binding to DNA in the absence of Tnks-mediated Terf1 parsylation results in replication fork stalling in telomeres (Munoz, et al., 2009; Ohki and Ishikawa, 2004) which then presumably results in telomere shortening. […]
1×10^6 cells were collected and washed with PBS. […] Gels were exposed to a Phosphorlmager screen overnight and analyzed using a Typhoon Phosphorlmager scanner system (Molecular Dynamics). […]

Chain of PARP6 (Q2NL67 whole entry): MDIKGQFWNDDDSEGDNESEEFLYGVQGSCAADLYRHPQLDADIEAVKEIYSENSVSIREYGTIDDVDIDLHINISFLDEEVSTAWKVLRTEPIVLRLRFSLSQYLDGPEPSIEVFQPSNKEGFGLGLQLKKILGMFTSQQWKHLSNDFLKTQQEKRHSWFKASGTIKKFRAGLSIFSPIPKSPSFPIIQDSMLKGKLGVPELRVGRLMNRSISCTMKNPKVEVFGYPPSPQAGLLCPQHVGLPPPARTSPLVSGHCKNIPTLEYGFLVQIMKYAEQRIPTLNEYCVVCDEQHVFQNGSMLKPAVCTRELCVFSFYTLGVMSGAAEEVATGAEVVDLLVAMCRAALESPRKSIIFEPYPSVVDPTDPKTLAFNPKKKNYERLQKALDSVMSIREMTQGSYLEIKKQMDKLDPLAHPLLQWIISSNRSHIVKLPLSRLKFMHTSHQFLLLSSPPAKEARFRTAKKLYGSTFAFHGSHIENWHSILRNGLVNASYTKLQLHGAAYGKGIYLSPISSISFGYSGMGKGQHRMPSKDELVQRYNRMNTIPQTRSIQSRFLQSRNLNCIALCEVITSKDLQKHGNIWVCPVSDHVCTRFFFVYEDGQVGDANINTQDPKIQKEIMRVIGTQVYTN
Chain of PARP7 (Q7Z3E1 whole entry): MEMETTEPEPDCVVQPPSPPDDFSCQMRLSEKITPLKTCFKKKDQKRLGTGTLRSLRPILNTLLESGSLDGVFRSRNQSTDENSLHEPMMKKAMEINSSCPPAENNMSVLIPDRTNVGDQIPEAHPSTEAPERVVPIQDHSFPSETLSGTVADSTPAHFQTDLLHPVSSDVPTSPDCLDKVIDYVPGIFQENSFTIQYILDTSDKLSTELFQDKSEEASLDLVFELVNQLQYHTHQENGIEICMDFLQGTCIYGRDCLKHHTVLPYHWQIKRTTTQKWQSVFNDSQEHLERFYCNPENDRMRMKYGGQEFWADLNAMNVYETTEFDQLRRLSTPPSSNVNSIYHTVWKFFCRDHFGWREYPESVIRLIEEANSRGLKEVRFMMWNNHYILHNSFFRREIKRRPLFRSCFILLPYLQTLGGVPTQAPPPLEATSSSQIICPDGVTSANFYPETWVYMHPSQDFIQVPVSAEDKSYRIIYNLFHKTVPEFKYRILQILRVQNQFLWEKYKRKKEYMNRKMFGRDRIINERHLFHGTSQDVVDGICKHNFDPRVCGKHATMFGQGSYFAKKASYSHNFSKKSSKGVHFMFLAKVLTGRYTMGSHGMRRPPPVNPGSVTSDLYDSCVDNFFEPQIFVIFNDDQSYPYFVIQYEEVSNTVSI
Chain of PARP11 (Q9NR21 whole entry): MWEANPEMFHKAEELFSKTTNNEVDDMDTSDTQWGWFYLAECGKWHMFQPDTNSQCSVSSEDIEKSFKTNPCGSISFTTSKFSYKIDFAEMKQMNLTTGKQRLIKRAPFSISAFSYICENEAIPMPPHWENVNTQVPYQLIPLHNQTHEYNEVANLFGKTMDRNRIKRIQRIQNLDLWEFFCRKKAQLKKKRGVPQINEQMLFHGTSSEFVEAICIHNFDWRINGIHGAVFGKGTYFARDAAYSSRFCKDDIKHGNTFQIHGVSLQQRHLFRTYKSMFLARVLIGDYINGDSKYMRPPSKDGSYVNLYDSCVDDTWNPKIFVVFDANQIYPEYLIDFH
Chain of PARP1 (P09874 whole entry): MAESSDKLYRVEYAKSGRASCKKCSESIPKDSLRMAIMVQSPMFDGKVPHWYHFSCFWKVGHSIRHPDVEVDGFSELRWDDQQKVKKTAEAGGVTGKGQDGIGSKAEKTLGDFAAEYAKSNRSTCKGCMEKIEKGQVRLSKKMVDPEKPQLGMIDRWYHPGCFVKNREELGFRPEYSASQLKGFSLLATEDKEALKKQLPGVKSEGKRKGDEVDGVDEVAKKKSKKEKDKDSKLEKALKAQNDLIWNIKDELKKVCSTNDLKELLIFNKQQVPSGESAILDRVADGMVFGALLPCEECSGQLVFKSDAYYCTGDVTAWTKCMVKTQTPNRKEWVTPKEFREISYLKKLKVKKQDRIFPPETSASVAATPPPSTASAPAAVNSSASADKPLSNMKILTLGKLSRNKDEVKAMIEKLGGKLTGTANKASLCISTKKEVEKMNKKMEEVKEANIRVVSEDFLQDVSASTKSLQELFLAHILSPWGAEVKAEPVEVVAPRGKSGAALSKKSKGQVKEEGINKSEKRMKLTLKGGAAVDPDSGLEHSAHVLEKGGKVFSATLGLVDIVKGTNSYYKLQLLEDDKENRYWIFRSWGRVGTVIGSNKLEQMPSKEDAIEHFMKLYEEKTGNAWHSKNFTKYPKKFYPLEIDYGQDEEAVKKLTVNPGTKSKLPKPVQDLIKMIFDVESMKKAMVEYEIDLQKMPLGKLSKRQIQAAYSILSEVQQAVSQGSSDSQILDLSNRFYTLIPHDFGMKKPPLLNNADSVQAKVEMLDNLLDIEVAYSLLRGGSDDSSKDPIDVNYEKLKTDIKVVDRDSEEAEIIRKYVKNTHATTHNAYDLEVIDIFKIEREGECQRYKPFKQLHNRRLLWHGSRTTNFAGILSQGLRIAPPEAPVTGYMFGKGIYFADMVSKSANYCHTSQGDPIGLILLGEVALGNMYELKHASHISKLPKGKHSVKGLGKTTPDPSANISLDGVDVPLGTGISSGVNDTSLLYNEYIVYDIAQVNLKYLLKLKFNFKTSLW

| Compound | % inhibition (PARP6) | % inhibition (PARP11) | % inhibition (PARP1) | % inhibition (PARP7) | telomerase activity (telomerase) | specificity for Tnks enzymes over several other PARPs compared to XAV-939 (Tnks enzymes) | telomere length (HeLa cells) | inhibition at 10 µM (PARP6) | inhibition at 10 µM (PARP11) | inhibition at 10 µM (PARP1) | inhibition at 10 µM (PARP7) |
| --- | --- | --- | --- | --- | --- | --- | --- | --- | --- | --- | --- |
| O=C(Nc1cccc2cccnc12)c1ccc(N2C(=O)[C@@H]3[C@H](C2=O)[C@@H]2C=C[C@H]3C2)cc1 [IWR-1] | 0% | 2% | 0% | 7% | direct inactivation of telomerase by Tnks inhibitors was ruled out | ~100 fold | induced shortened telomere length in a dose-dependent manner |  |  |  |  |
| CCN(C(=O)C1CCN(S(=O)(=O)c2cc3c(cc2Br)CCN3C(C)=O)CC1)c1cccc(C)c1 [IWR-8] |  |  |  |  |  |  | induced shortened telomere length in a dose-dependent manner | 0% | 12% | 0% | 8% |
